Reference: patent US20110230428A1, “CERTAIN KYNURENINE-3-MONOOXYGENASE INHIBITORS, PHARMACEUTICAL COMPOSITIONS, AND METHODS OF USE THEREOF” (priority 2008, published 2011)

target: T1, KMO mouse enzyme (Mus musculus, UniProt Q91WN4); assay: KMO mouse enzyme assay: L-Kynurenine hydroxylation to 3OH-KYN by LC/MS; type: biochemical; details: compound at 10 μM; KMO from mouse liver mitochondria; read-out: INH.Mouse @ 10 μM
T1 construct: KMO enzyme prepared at Evotec from mouse liver (4-6 weeks old) via mitochondria isolation; from tissue; host or cells: mouse liver (4-6 weeks old), isolated mitochondria
Procedure: A method of monitoring L-Kynurenine (KYN) hydroxylation to form 3-Hydroxy-Kynurenine (3OH-KYN) by LC/MS is described. Product is quantified by multiple reaction monitoring (MRM method).
• Compound: Stock concentrations: 10 mM in 100% DMSO • Enzyme: KMO enzyme prepared at Evotec from mouse liver (4-6 weeks old) via mitochondria isolation as described in the literature • Substrate: L-Kynurenine (Sigma: Cat# K3750, stock concentration: 10 mM in 100 mM potassium phosphate buffer, pH 7.4)
• Buffer: 100 mM potassium phosphate, pH 7.4, 200 μM NADPH, 0.4 U/ml G6P-DH (Glucose 6-phosphate Dehydrogenase), 3 mM G6P (D-Glucose 6-phosphate) • Assay Volume: 40 μl • Plate Format: 384 well plate, transparent (Matrix) • Read-Out: product (3OH-KYN) quantification using product specific MRM • Reader: LC/MS/MS
• prepare serial dilution (factor 3) of compound in 100% DMSO (top concentration=10 mM, 100% DMSO) • [8 points: 10 mM; 3.33 mM; 1.11 mM; 0.37 mM; 0.12 mM; 0.04 mM; 0.0137 mM; 0.0045 mM, 0.0015 mM] • prepare […] solution of each compound concentration (top concentration 300 μM, 3% DMSO) in assay buffer • [concentrations: 300 μM; 100 μM; 33.3 μM; 11.1 μM; 3.70 μM; 1.23 μM; 0.41 μM; 0.137 μM] • prepare substrate (10 mM) at concentration of 1 mM in assay buffer • assay mix: 4 μl compound/well of each concentration+24 μl assaybuffer/well+8 μl KMO mouse enzyme+4 μl 1 mM substrate (final concentration=100 μM) • [final compound top concentration: 30 μM; 0.3% DMSO] • [final compound bottom concentration: 0.0137 μM; 0.3% DMSO] • positive control: 4 μl 50 μM FCE28833 in assay buffer, 0.5% DMSO [final assay concentration=5 μM]+24 μl assaybuffer/well+8 μl KMO mouse enzyme+4 μl 1 mM substrate [final concentration=100 μM] • negative control: 28 μl assay buffer/well+8 μl KMO mouse enzyme+4 μl 1 mM substrate [final concentration=100 μM] • incubate 40 min at RT • add 40 μl/well 10% trichloro acetic acid in water to stop the assay and precipitate protein • centrifuge plate for 3 min at 4000 rpm • product detection by LC/MS (injection of 20 μl/well, 2 fold overfill of the 10 μl sample loop) Data analysis: IC50's are calculated using automated fitting algorithm (A+Analysis).
Using procedures similar to those described herein, the following compounds were assayed for activity.

T1 sequence (Q91WN4 whole entry): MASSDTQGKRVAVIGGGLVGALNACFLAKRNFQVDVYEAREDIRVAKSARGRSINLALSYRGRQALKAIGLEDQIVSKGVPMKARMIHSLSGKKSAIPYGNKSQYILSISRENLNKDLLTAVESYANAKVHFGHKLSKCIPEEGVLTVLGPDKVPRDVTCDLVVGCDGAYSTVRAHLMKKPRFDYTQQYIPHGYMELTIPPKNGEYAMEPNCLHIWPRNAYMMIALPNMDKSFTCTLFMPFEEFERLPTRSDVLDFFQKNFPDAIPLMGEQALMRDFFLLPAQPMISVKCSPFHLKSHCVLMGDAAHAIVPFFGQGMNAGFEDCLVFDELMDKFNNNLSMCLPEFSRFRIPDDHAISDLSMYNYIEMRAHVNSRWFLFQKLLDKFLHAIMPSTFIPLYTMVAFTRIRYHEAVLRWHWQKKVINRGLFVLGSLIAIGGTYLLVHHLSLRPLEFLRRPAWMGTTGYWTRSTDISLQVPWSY

inhibition at 10 µM | SMILES
71.5% | CON=C(CCCC#N)c1ccc(Cl)c(Cl)c1 [5-(3,4-Dichloro-phenyl)-5-methoxyimino-pentanenitrile]
54.6% | CON=C(CCC(=O)NCCN1CCOCC1)c1ccc(Cl)c(Cl)c1 [4-(3,4-Dichloro-phenyl)-4-methoxyimino-N-(2-morpholin-4-yl-ethyl)-butyramide]
77.7% | CON=C(CCC(C)=O)c1ccc(Cl)c(Cl)c1 [1-(3,4-Dichloro-phenyl)-pentane-1,4-dione 1-(O-methyl-oxime)]
90.4% | CON=C(CCC(=O)Nc1cnc(C)nc1)c1ccc(Cl)c(Cl)c1 [4-(3,4-Dichloro-phenyl)-4-methoxyimino-N-(2-methyl-pyrimidin-5-yl)-butyramide]
66% | COC(=O)CC/C(=N\OCc1ccccc1)c1ccc(Cl)c(Cl)c1 [4-Benzyloxyimino-4-(3,4-dichloro-phenyl)-butyric acid methyl ester]
90.5% | CO/N=C(\CCC(=O)Nc1cnn(C)c1)c1ccc(Cl)c(Cl)c1 [4-(3,4-Dichloro-phenyl)-4-methoxyimino-N-(1-methyl-1H-pyrazol-4-yl)-butyramide]
90.3% | CON=C(CCC(=O)Nc1cncc(F)c1)c1ccc(Cl)c(Cl)c1 [4-(3,4-Dichloro-phenyl)-N-(5-fluoro-pyridin-3-yl)-4-methoxyimino-butyramide]
103% | CON=C(CCC(=O)Nc1cccnc1)c1ccc(Cl)c(Cl)c1 [4-(3,4-Dichloro-phenyl)-4-methoxyimino-N-pyridin-3-yl-butyramide]
98.7% | CO/N=C(\CCC(=O)O)c1cc(Cl)cc(Cl)c1 [4-(3,5-Dichloro-phenyl)-4-methoxyimino-butyric acid]
